Laboratory results from patent publication US20230391826A1, “COMPOSITIONS AND METHODS FOR TREATING DISEASES” (Sanford Burnham Prebys Medical Discovery Institute, priority 2020, published 2023).
Converted amounts (≈) assume the structure as drawn. Where two headings read alike, the source gives them in different places. Where a SMILES comes first, the peptide text is derived from it. Bridges are numbered along the chain shown (N, C = ends). Roman numbers before positions name the chains, in order. [ ]: non-standard residue; d: D form. βAla = NCCC(=O)O

How the values were obtained:
[1] = Peptide solubility in PBS/H2O/DMSO; assay type: physicochemical
Experimental: Peptide identity and purity are documented by mass spectrometry and high-performance liquid chromatography (HPLC). The peptide solubility values are determined. Concentrated peptide stocks are prepared in DMSO or H2O and stored frozen at −80° C.

EphA2 LBD = biological target: T1, EphA2 LBD (Homo sapiens, UniProt P29317); test: Isothermal titration calorimetry (ITC) with soluble EphA2 LBD; assay type: binding
T1 construct: made in house; host or cells: E. coli Origami 2(DE3)
Experimental: (FIG. 10A-10E) The EphA2 LBD was titrated at 200-250 μM into 10-12.5 μM of the indicated peptide.
For ITC, all peptides are dissolved in DMSO and both the EphA2 LBD and the peptides are diluted to obtain a final buffer containing 9.5 mM HEPES, pH 7.9, 95 mM NaCl, and 5% DMSO. The experiments are carried out at 296 K (23° C.) using an ITC200 calorimeter (Microcal). Two-microliter aliquots of a peptide solution are injected into the cell containing 205 μL EphA2 LBD. 200-400 μM peptides are titrated into 20-40 μM EphA2 LBD. Experimental data are analyzed using the Origin software package (Microcal). The integrated values for the reaction heats are normalized to the amount of injected peptide after blank subtraction.

[2] = biological target: T2, EphA2 extracellular domain fused to Fc (EphA2-Fc) (Homo sapiens, UniProt P29317); test: ELISA: inhibition of ephrinA5-AP binding to immobilized EphA2-Fc
T2 construct: immobilized EphA2 extracellular domain fused to the Fc portion of an antibody (EphA2-Fc)
Excerpt: FIG. 1A-1C illustrates an example of Potency and selectivity of EphA2-targeting dimeric peptides. (FIG. 1A) ELISAs comparing the ability of the peptides to inhibit binding of ephrin-A5 fused to alkaline phosphatase (ephrinA5-AP) to the immobilized EphA2 extracellular domain fused to the Fc portion of an antibody (EphA2-Fc). The graphs show averages ±SD from triplicate measurements from a representative experiment. IC50 values calculated from the fitted curves in each experiment are shown. Averages of IC50 values obtained from multiple experiments are shown in panel FIG. 1B and Table 3. The 10 nM peptide concentration is outlined in red. (FIG. 1B) Plot of the average IC50 values (listed in Table 3) for different ligands. […] (FIG. 1C) EphrinA5-AP binding to EphA receptors and ephrinB2-AP binding to EphB receptors in the presence of dimeric peptides representing each of the three configurations. Values are normalized to ephrin binding without peptide. The graphs show averages and SDs from triplicate measurements (with each measurement shown as a dot).

EphA2 = EphA2 (Homo sapiens, UniProt P29317); test: EphA2 autophosphorylation on tyrosine 588 in PC3 cells (immunoblot dose-response); assay type: cell-based; design: EphA2 is the prevalent endogenously expressed EphA receptor in these cells; endogenous in cells; host or cells: PC3 prostate cancer cells; conditions: read-out: EC50 PY588
Experimental: (FIG. 2A) Dose-response curves for EphA2 autophosphorylation on tyrosine 588 (pY588; purple) and for downstream inhibition of AKT phosphorylation (magenta). PC3 cells were treated for 15 min with different concentrations of the indicated peptides. […] The graphs show quantifications from multiple blots (averages ±SE; the number of experiments used to generate each curve is shown in Table 3). […] (FIG. 2B) Examples of immunoblots of lysates from PC3 cells treated with the indicated concentrations of representative ligands. […] A white vertical line indicates removal of irrelevant lanes. […] The bars show averages ±SE, and the individual measurements are shown as black dots. […] Plots of Etop versus EC50 for pY588 in FIG. 2D and for pAKT inh in FIG. 2E. Averages ±SE are shown for the peptides and ephrinA1.
To examine the agonistic properties of the different dimeric peptide ligands, EphA2 autophosphorylation on tyrosine 588 (Y588) was measured, which is indicative of receptor activation and mediates binding of SH2 domain-containing proteins that link EphA2 to various downstream signaling pathways (FIG. 7). For these experiments, PC3 prostate cancer cells were stimulated with the dimeric peptides because EphA2 is the prevalent endogenously expressed EphA receptor in these cells, allowing comparisons with ephrins.

[3] = DMSO, Table 4, third of PBS/H20/DMSO, read-out: Solubility in DMSO
[4] = DMSO, third of PBS/H2O/DMSO, read-out: Solubility in DMSO
[5] = H2O, second of PBS/H2O/DMSO, read-out: Solubility in H2O
[6] = PBS, Table 4, first of PBS/H20/DMSO, read-out: Solubility in PBS
[7] = PBS, first of PBS/H2O/DMSO, read-out: Solubility in PBS
[8] = H2O, Table 4, second of PBS/H20/DMSO, read-out: Solubility in H20
[9] = Table 3, inhibition of EphA2-ephrinA5 interaction, averages ± SD, read-out: ICsa (nM) by ELISA

T2 sequence (P29317 24-537 limits assumed): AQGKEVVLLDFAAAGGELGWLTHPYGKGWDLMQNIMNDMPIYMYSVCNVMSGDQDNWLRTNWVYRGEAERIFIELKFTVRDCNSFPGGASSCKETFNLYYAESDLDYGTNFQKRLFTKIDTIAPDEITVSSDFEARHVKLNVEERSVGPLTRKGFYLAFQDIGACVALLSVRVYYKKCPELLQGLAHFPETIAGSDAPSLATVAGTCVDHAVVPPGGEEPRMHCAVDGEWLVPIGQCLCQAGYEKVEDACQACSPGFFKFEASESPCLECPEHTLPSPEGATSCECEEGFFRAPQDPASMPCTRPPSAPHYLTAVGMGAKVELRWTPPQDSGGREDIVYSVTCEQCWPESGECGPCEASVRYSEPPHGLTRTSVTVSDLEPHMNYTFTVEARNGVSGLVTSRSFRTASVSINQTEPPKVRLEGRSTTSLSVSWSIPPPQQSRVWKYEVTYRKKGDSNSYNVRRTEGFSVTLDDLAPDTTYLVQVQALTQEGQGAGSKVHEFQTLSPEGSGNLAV
T1 sequence (P29317 28-200): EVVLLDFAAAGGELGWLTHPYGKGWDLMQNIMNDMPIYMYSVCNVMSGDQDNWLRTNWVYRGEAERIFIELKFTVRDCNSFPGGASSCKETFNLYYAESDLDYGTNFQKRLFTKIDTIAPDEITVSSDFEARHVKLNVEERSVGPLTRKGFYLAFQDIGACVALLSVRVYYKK
Chain of EphA2 (P29317 24-976): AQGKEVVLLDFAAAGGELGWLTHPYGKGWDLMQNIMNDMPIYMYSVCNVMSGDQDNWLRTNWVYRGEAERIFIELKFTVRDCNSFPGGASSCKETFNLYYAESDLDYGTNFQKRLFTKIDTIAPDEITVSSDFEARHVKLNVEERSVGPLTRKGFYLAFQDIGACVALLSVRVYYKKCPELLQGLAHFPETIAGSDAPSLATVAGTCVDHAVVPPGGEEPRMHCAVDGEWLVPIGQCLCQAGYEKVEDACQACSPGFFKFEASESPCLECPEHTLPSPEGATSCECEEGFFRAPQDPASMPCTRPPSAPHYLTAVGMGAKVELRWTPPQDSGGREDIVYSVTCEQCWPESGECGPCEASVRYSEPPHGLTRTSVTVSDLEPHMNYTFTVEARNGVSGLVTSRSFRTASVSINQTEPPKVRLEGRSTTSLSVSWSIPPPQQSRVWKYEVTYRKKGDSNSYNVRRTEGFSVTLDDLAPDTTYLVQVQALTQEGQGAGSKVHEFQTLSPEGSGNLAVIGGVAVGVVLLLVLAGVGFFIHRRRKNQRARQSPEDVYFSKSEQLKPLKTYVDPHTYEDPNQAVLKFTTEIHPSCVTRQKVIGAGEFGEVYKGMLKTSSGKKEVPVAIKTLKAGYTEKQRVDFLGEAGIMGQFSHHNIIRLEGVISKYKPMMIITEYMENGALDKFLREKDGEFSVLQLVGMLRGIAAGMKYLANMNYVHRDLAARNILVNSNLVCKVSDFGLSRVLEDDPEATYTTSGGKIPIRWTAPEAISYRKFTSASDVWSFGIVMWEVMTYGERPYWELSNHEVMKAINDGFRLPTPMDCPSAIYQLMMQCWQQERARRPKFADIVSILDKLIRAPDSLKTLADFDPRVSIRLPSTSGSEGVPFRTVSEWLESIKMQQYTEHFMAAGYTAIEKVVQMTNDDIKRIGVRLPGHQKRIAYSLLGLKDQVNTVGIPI

solubility [1, 3]	solubility [1, 4]	solubility [1, 5]	solubility [1, 6]	solubility [1, 7]	solubility ([1]; water, Table 4, second of PBS/H20/DMSO, read-out: Solubility in H20)	Kd (EphA2 LBD)	IC50 ([2]; inhibition of ephrin-A5 binding to EphA2, number of experiments in parentheses, read-out: Inc50 (nM) by ELISA)	solubility [1, 8]	IC50 [2, 9]	EC50 (EphA2)	ICsa (nM) by ELISA ([2]; Table 3, inhibition of EphA2-ephrinA5 interaction, averages ± SD)	Structure (SMILES)	binding to the EphA2 LBD by ITC (EphA2 LBD; high biotin concentration (1 mM))
10000 µg/mL (≈ 3130 µM)	10000 µg/mL (≈ 3130 µM)	< 100 µg/mL	< 100 µg/mL	< 100 µg/mL	< 100 µg/mL	104 ± 1 nM	7.9 ± 1.9 nM	–	–	–	–	CC(C)C[C@H](NC(=O)[C@H](Cc1c[nH]c2ccccc12)NC(=O)[C@H](C)NC(=O)CNC(=O)[C@@H](N)CSSC[C@H](N)C(=O)NCC(=O)N[C@@H](C)C(=O)N[C@@H](Cc1c[nH]c2ccccc12)C(=O)N[C@@H](CC(C)C)C(=O)N[C@@H](C)C(=O)N[C@@H](Cc1ccc(O)cc1)C(=O)N1CCC[C@H]1C(=O)N[C@@H](CC(=O)O)C(=O)N[C@@H](CO)C(=O)N[C@H](C(=O)N1CCC[C@H]1C(=O)N[C@@H](Cc1ccc(O)cc1)C(=O)N[C@@H](CCCNC(=N)N)C(=O)O)C(C)C)C(=O)N[C@@H](C)C(=O)N[C@@H](Cc1ccc(O)cc1)C(=O)N1CCC[C@H]1C(=O)N[C@@H](CC(=O)O)C(=O)N[C@@H](CO)C(=O)N[C@H](C(=O)N1CCC[C@H]1C(=O)N[C@@H](Cc1ccc(O)cc1)C(=O)N[C@@H](CCCNC(=N)N)C(=O)O)C(C)C [compound 4] (I: H-CGAWLAYPDSVPYR-OH / II: H-CGAWLAYPDSVPYR-OH; disulfide I:1-II:1; C-terminus assumed)	–
–	10000 µg/mL (≈ 2750 µM)	5000 µg/mL (≈ 1380 µM)	1000 µg/mL (≈ 275 µM)	< 100 µg/mL	–	–	–	5000 µg/mL (≈ 1380 µM)	0.54 nM	0.22 ± 0.04 nM	–	CC(C)C[C@H](NC(=O)[C@H](Cc1c[nH]c2ccccc12)NC(=O)[C@H](C)NC(=O)CNC(=O)[C@@H](N)Cc1cn(CCCC[C@H](N)C(=O)N[C@@H](C)C(=O)N[C@@H](Cc2c[nH]c3ccccc23)C(=O)N[C@@H](CC(C)C)C(=O)N[C@@H](C)C(=O)N[C@@H](Cc2ccc(O)cc2)C(=O)N2CCC[C@H]2C(=O)N[C@@H](CC(=O)O)C(=O)N[C@@H](CO)C(=O)N[C@H](C(=O)N2CCC[C@H]2C(=O)N[C@@H](Cc2ccc(O)cc2)C(=O)N[C@@H](CCCNC(=N)N)C(=O)N2CCC[C@H]2C(=O)N[C@@H](CCCCN)C(N)=O)C(C)C)nn1)C(=O)N[C@@H](C)C(=O)N[C@@H](Cc1ccc(O)cc1)C(=O)N1CCC[C@H]1C(=O)N[C@@H](CC(=O)O)C(=O)N[C@@H](CO)C(=O)N[C@H](C(=O)N1CCC[C@H]1C(=O)N[C@@H](Cc1ccc(O)cc1)C(=O)N[C@@H](CCCNC(=N)N)C(=O)N1CCC[C@H]1C(=O)N[C@@H](CCCCN)C(N)=O)C(C)C [compound 7]	–
10000 µg/mL (≈ 2910 µM)	–	–	< 100 µg/mL	–	–	–	–	5000 µg/mL (≈ 1460 µM)	0.77 nM	–	–	CC(C)C[C@H](NC(=O)[C@H](Cc1c[nH]c2ccccc12)NC(=O)CCN)C(=O)N[C@@H](C)C(=O)N[C@@H](Cc1ccc(O)cc1)C(=O)N1CCC[C@H]1C(=O)N[C@@H](CC(=O)O)C(=O)N[C@@H](CO)C(=O)N[C@H](C(=O)N1CCC[C@H]1C(=O)N[C@@H](Cc1ccc(O)cc1)C(=O)N[C@@H](CCCNC(=N)N)C(=O)N1CCC[C@H]1C(=O)N[C@@H](CCCCN)C(=O)NCCCC[C@H](NC(=O)[C@H](CCCCN)NC(=O)[C@@H]1CCCN1C(=O)[C@H](CCCNC(=N)N)NC(=O)[C@H](Cc1ccc(O)cc1)NC(=O)[C@@H]1CCCN1C(=O)[C@@H](NC(=O)[C@H](CO)NC(=O)[C@H](CC(=O)O)NC(=O)[C@@H]1CCCN1C(=O)[C@H](Cc1ccc(O)cc1)NC(=O)[C@H](C)NC(=O)[C@H](CC(C)C)NC(=O)[C@H](Cc1c[nH]c2ccccc12)NC(=O)CCN)C(C)C)C(=O)O)C(C)C [compound 3]	–
–	–	–	–	–	–	–	–	–	–	–	–	O=C(O)CCCC[C@@H]1SC[C@@H]2NC(=O)N[C@@H]21 [free biotin, biotin, reference compound]	did not detect binding
–	10000 µg/mL (≈ 2920 µM)	5000 µg/mL (≈ 1460 µM)	–	1000 µg/mL (≈ 292 µM)	–	–	–	5000 µg/mL (≈ 1460 µM)	–	–	subnanomolar	CC(C)C[C@H](NC(=O)[C@H](Cc1c[nH]c2ccccc12)NC(=O)CCN)C(=O)N[C@@H](C)C(=O)N[C@@H](Cc1ccc(O)cc1)C(=O)N1CCC[C@H]1C(=O)N[C@@H](CC(=O)O)C(=O)N[C@@H](CO)C(=O)N[C@H](C(=O)N1CCC[C@H]1C(=O)N[C@@H](Cc1ccc(O)cc1)C(=O)N[C@@H](CCCNC(=N)N)C(=O)N1CCC[C@H]1C(=O)N[C@@H](CCCCN)C(=O)NCC(=O)NCC(=O)N[C@@H](C)C(=O)N[C@@H](Cc1c[nH]c2ccccc12)C(=O)N[C@@H](CC(C)C)C(=O)N[C@@H](C)C(=O)N[C@@H](Cc1ccc(O)cc1)C(=O)N1CCC[C@H]1C(=O)N[C@@H](CC(=O)O)C(=O)N[C@@H](CO)C(=O)N[C@H](C(=O)N1CCC[C@H]1C(=O)N[C@@H](Cc1ccc(O)cc1)C(=O)N[C@@H](CCCNC(=N)N)C(=O)N1CCC[C@H]1C(=O)N[C@@H](CCCCN)C(N)=O)C(C)C)C(C)C [compound 8, linear dimer (head-to-tail)] (H-[βAla]WLAYPDSVPYRPKGGAWLAYPDSVPYRPK-NH2; N-terminus assumed)	–
